Test results reported in patent US20020103083A1, “Promoting deeper root development, reducing nitrogen fertilizer usage, imparting drought resistance, and increasing tolerance to adverse soil conditions in plants” (priority 2000, published 2002).

Test system: T. harzianum strain T-22
Assay: Effect of chemical seed treatments on subsequent root colonization by T-22
Type: in vivo, Trichoderma harzianum
Details: full rates of chemical seed treatment
Description: In nearly all cases, the best results in direct-seeded field crops are obtained with an integration of chemical seed treatments and the deep root developing agents. […] This resistance permits the use of both the biological root colonizing agent and chemical seed protectants.

Row | Compound | prevention of subsequent root colonization by T-22
1 | CC(C)(C)C(O)(CCc1ccc(Cl)cc1)Cn1cncn1 (centres unmarked) [tebuconazole] | exceptions
2 | CN(C)C(=S)SSC(=S)N(C)C [thiram] | exceptions
